Results published in ChEMBL document CHEMBL6134800, “Applications of innovative synthetic strategies in anticancer drug discovery: The driving force of new chemical reactions” (Bioorg Med Chem Lett, 2025).
Values after ≈ are worked out from the molar mass of the structure shown.

Key:
A549 [1] = test: Cytotoxicity against human A549 cells assessed as reduction in cell growth by resazurin assay; assay type: functional, cell-based
Escherichia coli = test: Antimicrobial activity against Escherichia coli assessed as reduction in microbial growth; assay type: functional, organism-based
Bacillus subtilis = test: Antibacterial activity against Bacillus subtilis assessed as reduction in bacterial growth; assay type: functional, organism-based
HL-60 = test: Cytotoxicity against human HL-60 cells assessed as reduction in cell growth by resazurin assay; assay type: functional, cell-based
NIH3T3 = test: Cytotoxicity against mouse NIH/3T3 cells assessed as reduction in cell growth by resazurin assay; assay type: functional, cell-based
HeLa [2] = test: Antiproliferative activity against human HeLa cells assessed as reduction in cell growth by MTT assay; assay type: functional, cell-based
A549 [3] = test: Antiproliferative activity against human A549 cells assessed as reduction in cell growth by MTT assay; assay type: functional, cell-based
HeLa [4] = test: Antiproliferative activity against human HeLa cells assessed as reduction in cell viability incubated for 48 hrs by MTT assay; assay type: functional, cell-based
HCT-116 [5] = test: Anticancer activity against human HCT-116 cells assessed as reduction in cell viability; assay type: functional, cell-based
HCT-116 [6] = test: Anticancer activity against human HCT-116 cells assessed as inhibition of cell viability at 20 uM relative to control; assay type: functional
A549 [7] = test: Antiproliferative activity against human A549 cells assessed as reduction in cell viability incubated for 24 hrs by MTT assay; assay type: functional, cell-based; details: A549, 24 h
HCT-116 [8] = test: Antiproliferative activity against human HCT-116 cells assessed as reduction in cell viability incubated for 24 hrs by MTT assay; assay type: functional, cell-based; details: HCT-116, 24 h
HeLa [9] = test: Antiproliferative activity against human HeLa cells assessed as reduction in cell viability incubated for 24 hrs by MTT assay; assay type: functional, cell-based
MCF7 [10] = test: Cytotoxicity against human MCF7 cells assessed as reduction in cell viability incubated for 48 hrs by SRB assay; assay type: functional, cell-based; details: MCF7, 48 h
HeLa [11] = test: Cytotoxicity against human HeLa cells assessed as reduction in cell viability incubated for 48 hrs by SRB assay; assay type: functional, cell-based
MDA-MB-231 [12] = test: Cytotoxicity against human MDA-MB-231 cells assessed as reduction in cell viability incubated for 48 hrs by SRB assay; assay type: functional, cell-based; details: MDA-MB-231, 48 h
DU-145 = test: Cytotoxicity against human DU-145 cells assessed as reduction in cell viability incubated for 48 hrs by SRB assay; assay type: functional, cell-based; details: DU-145, 48 h
HepG2 [13] = test: Cytotoxicity against human HepG2 cells assessed as reduction in cell viability incubated for 48 hrs by SRB assay; assay type: functional, cell-based; details: HepG2, 48 h
[14] = target: Cyclin-dependent kinases regulatory subunit 1/S-phase kinase-associated protein 2 (Homo sapiens) (UniProt P61024+Q13309); test: Inhibition of SKP2/CKS1 (unknown origin) protein-protein interaction at 50 uM relative to control; assay type: protein assay
KBv200 = test: Cytotoxicity against human KBv200 cells assessed as reduction in cell viability incubated for 72 hrs by SRB assay; assay type: functional, cell-based; details: KBv200, 72 h
K562/Adr = test: Antiproliferative activity against human K562/Adr cells assessed as reduction in cell growth incubated for 72 hrs by MTT assay; assay type: functional, cell-based
BXPC-3 = test: Antiproliferative activity against human BXPC-3 cells assessed as reduction in cell growth incubated for 72 hrs by MTT assay; assay type: functional, cell-based
MCF7 [15] = test: Growth inhibition of human MCF7 cells measured for 48 hrs by SRB assay; assay type: functional
[16] = Antioxidant activity assessed as hydroxyl radical scavenging activity; assay type: functional
[17] = Antioxidant activity assessed as DPPH radical scavenging activity; assay type: functional
A549 [18] = test: Growth inhibition of human A549 cells measured for 48 hrs by SRB assay; assay type: functional
HepG2 [19] = test: Growth inhibition of human HepG2 cells measured for 48 hrs by SRB assay; assay type: functional
PC-3 = test: Growth inhibition of human PC-3 cells measured for 48 hrs by SRB assay; assay type: functional
LoVo = test: Antiproliferative activity against human LoVo cells; assay type: functional, cell-based
HCT-116 [20] = test: Antiproliferative activity against human HCT-116 cells; assay type: functional, cell-based
[21] = Cytotoxicity against human BEAS-2B cells assessed as reduction in cell viability by MTT assay; assay type: toxicity, cell-based
A549 [22] = test: Cytotoxicity against human A549 cells assessed as reduction in cell viability by MTT assay; assay type: functional, cell-based
MCF7 [23] = test: Cytotoxicity against human MCF7 cells assessed as reduction in cell viability by MTT assay; assay type: functional, cell-based
MCF7 [24] = test: Antiproliferative activity against human MCF7 cells; assay type: functional, cell-based
MDA-MB-231 [25] = test: Antiproliferative activity against human MDA-MB-231 cells; assay type: functional, cell-based
T47D = test: Antiproliferative activity against human T47D cells; assay type: functional, cell-based

Chain of Cyclin-dependent kinases regulatory subunit 1/S-phase kinase-associated protein 2 (Homo sapiens) (P61024 2-79 limits assumed): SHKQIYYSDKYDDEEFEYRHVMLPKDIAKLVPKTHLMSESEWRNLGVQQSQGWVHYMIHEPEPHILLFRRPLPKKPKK
Chain of Cyclin-dependent kinases regulatory subunit 1/S-phase kinase-associated protein 2 (Homo sapiens) (Q13309 whole entry partner): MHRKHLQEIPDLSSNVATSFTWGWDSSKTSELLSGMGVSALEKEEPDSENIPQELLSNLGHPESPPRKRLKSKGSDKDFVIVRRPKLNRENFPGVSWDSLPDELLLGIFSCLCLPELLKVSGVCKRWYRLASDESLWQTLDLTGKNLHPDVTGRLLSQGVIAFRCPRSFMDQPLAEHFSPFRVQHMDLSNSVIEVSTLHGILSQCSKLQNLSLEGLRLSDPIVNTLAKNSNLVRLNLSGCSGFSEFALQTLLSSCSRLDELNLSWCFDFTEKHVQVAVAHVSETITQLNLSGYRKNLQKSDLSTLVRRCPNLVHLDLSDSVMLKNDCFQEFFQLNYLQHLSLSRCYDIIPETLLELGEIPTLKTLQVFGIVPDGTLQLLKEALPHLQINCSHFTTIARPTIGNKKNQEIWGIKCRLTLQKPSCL

With `Cc1cc(C)cc(P(=O)(c2cc(C)cc(C)c2)C2C(C#N)=C(N)Oc3ccc(F)cc32)c1` (stereo not drawn) the IC50 (A549 [1]) was greater than 30 µM, the IC50 (Escherichia coli) was greater than 10 µM and the IC50 (Bacillus subtilis) was 5.03 µM. The IC50 (HL-60) was 10.1 µM and the IC50 (NIH3T3) was greater than 30 µM.

`OC1(C(F)(F)F)C=C(c2ccccc2)c2cc3ccccc3n21` (stereo not drawn) gave an IC50 (HeLa [2]) of 2.17 µM and an IC50 (A549 [3]) of 11.9 µM.

Work on `Cc1nn(-c2ccc(C(C)C)cc2)c(O)c1-c1ccccc1C1=Nc2ccccc2C1(C)C` yielded an IC50 (HeLa [4]) of 23.8 µM.

`CC(C)OC(=O)C1=CN(c2cccc(Br)c2)CC(O)(c2ccccc2)O1` (stereo not drawn) gave an IC50 (HCT-116 [5]) of 7.6 µM and an inhibition at 20 µM (HCT-116 [6]) of 59%.

`COc1ccccc1C1=C2C(=O)c3ccccc3C(=O)/N=C3/c4ccccc4C(=O)C23c2cccc3c2N1CC3` (stereo not drawn) showed an IC50 (A549 [7]) of 8.43 µM, an IC50 (HCT-116 [8]) of 2.1 µM and an IC50 (HeLa [9]) of 1.54 µM.

For `CCOC(=O)c1sc(-c2ccc(OCC(C)C)c(C(Nc3ccc([N+](=O)[O-])cc3)P(=O)(OCC)OCC)c2)nc1C` (stereo not drawn), the IC50 (MCF7 [10]) was 12.3 µg/mL (≈ 20.3 µM), the IC50 (HeLa [11]) was 9.6 µg/mL (≈ 15.9 µM) and the IC50 (MDA-MB-231 [12]) was 6.3 µg/mL (≈ 10.4 µM). It also gave an IC50 (DU-145) of 2.13 µg/mL (≈ 3.52 µM) and an IC50 (HepG2 [13]) of 20.9 µg/mL (≈ 34.5 µM).

Molecule `COc1cc(OC)c(-c2cc(CC3c4ccccc4C(=O)N3c3ccc(C)cc3)nc3ncnn23)c(OC)c1` (stereo not drawn) has an inhibition [14] of 45%.

With `CC(=O)O[C@@]12CO[C@@H]1C[C@H](O)[C@@]1(C)C(=O)[C@H](O)C3=C(C)[C@@H](OC(=O)[C@H](O)[C@@H](NC(=O)OC(C)(C)C)c4ccccc4)C[C@@](O)([C@@H](OC(=O)c4ccccc4)[C@H]21)C3(C)C` [DOCETAXEL ANHYDROUS] the IC50 (KBv200) was 0.104 µM and the IC50 (K562/Adr) was 1.03 µM.

`COc1ccc(C2c3ccccc3-c3nc(C)cc(C(F)(F)F)c32)cc1OC` (stereo not drawn) showed an IC50 (A549 [7]) of 19.5 µM, an IC50 (HCT-116 [8]) of 15.4 µM and an IC50 (HeLa [9]) of 5.52 µM.

`Cc1ccc([C@H]2NC(=O)n3c(cc4ccccc43)C23CC3)cc1` (stereo in doubt; (R)-16a) gave an IC50 (BXPC-3; Homo sapiens, BXPC-3, 72 h) of 6.1 µM.

With `Cc1ccc([C@H]2NC(=O)n3c(cc4ccccc43)C23CC3)cc1` (stereo in doubt; 16a) the IC50 (BXPC-3; bxpc-3) was 8.6 µM.

With `O=C1O[C@H]([C@@H](O)CO)C(O)=C1O` [ASCORBIC ACID] the GI50 (MCF7 [15]) was less than 10 µg/mL, the IC50 [16] was 25.1 µM and the IC50 [17] was 27.3 µM. The GI50 (A549 [18]) was less than 10 µg/mL, the GI50 (HepG2 [19]) was less than 10 µg/mL and the GI50 (PC-3) was less than 10 µg/mL.

With `CC(C)C[C@H](NC(=O)[C@H](Cc1ccccc1)NC(=O)c1cnccn1)B(O)O` [BORTEZOMIB] the IC50 (HL-60) was 7.42 µM.

With `CC(C)OC(=O)C1=CN(c2ccc3ccccc3c2)CC(O)(c2ccccc2)O1` (stereo not drawn) the IC50 (HCT-116 [5]) was 9.4 µM and the inhibition at 20 µM (HCT-116 [6]) was 56%.

In the case of `O=C(CCCCCCC(=O)Nc1ccccc1)NO` [VORINOSTAT], the IC50 (LoVo) is reported as 0.74 µM and the IC50 (HCT-116 [20]) is reported as 10.1 µM.

In the case of `COC(=O)c1nc2nc(Oc3ccccc3)c(C#N)c(-c3ccc(OC)cc3)c2c(N)c1C(=O)OC`, the IC50 [21] is reported as 51.3 µg/mL (≈ 106 µM), the IC50 (A549 [22]) is reported as 10.1 µg/mL (≈ 20.9 µM) and the IC50 (MCF7 [23]) is reported as 48.2 µg/mL (≈ 99.6 µM).

In the case of `CCc1cc(C(=O)c2ccccc2Cl)c(NC(c2ccc(F)cc2)c2c(O)ccc3ccccc23)s1` (stereo not drawn), the GI50 (MCF7 [15]) is reported as less than 10 µg/mL, the IC50 [16] is reported as 31.3 µM and the IC50 [17] is reported as 29.8 µM. For the same molecule, the GI50 (A549 [18]) was less than 10 µg/mL, the GI50 (HepG2 [19]) was less than 10 µg/mL and the GI50 (PC-3) was less than 10 µg/mL.

`O=C1/N=C2/c3ccccc3C(=O)C23C(=C(c2cccs2)N2CCc4cccc3c42)C(=O)c2ccccc21` (stereo not drawn) gave an IC50 (A549 [7]) of 9.18 µM, an IC50 (HCT-116 [8]) of 1.63 µM and an IC50 (HeLa [9]) of 1.6 µM.

`Cc1ccc([C@@H]2NC(=O)n3c(cc4ccccc43)C23CC3)cc1` gave an IC50 (BXPC-3; Homo sapiens, BXPC-3, 72 h) of 1.7 µM.

With `C=C1N(S(=O)(=O)c2ccc(C)cc2)c2ccccc2[C@@]1(C)N` the IC50 (MCF7 [24]) was 16.1 µM, the IC50 (MDA-MB-231 [25]) was 6.66 µM and the IC50 (T47D) was 17.7 µM. For the same molecule, the IC50 (LoVo) was greater than 25 µM and the IC50 (HCT-116 [20]) was greater than 25 µM.

`COc1cc(OC)c(-c2cc(CC3c4ccccc4C(=O)N3c3ccc(Br)cc3)nc3ncnn23)c(OC)c1` (stereo not drawn) gave an inhibition [14] of 57%.

`C[C@H]1c2cccc(O)c2C(=O)C2=C(O)[C@]3(O)C(=O)C(C(N)=O)=C(O)[C@@H](N(C)C)[C@@H]3[C@@H](O)[C@@H]21` [DOXYCYCLINE ANHYDROUS] gave an IC50 (Escherichia coli) of 0.1 µM and an IC50 (Bacillus subtilis) of 0.126 µM.

In the case of `C=C1N(S(=O)(=O)c2ccc(C)cc2)c2ccccc2[C@]1(C)N`, the IC50 (MCF7 [24]) is reported as 2.21 µM, the IC50 (MDA-MB-231 [25]) is reported as 2.15 µM and the IC50 (T47D) is reported as 2.88 µM. It also gave an IC50 (LoVo) of 3.65 µM and an IC50 (HCT-116 [20]) of 4.3 µM.
